From PMC7144209, “Design, synthesis and anticancer activity of naphthoquinone derivatives” (Journal of Enzyme Inhibition and Medicinal Chemistry, 2020)

How the values were obtained:
[1] = tested on: SGC-7901, MGC-803, SMMC-7721, U-87 cell lines; assay: MTT anticancer activity, summary in words over the cell line panel; assay type: cell-based; details: MTT assay
Procedure: (§1) MGC-803, SGC-7901, U87 and SMMC-7721 cells were plated in 96-well plate at 7000 per well. Cells were incubated with the different concentrations of the compounds for 48 h. Subsequently, MTT (0.5 mg/mL) were used to test the cell viability, then 150 μL DMSO was added to each well after cells were incubated for 4 h and the absorbance was measured at 492 nm.
Compounds 1–24 were detected for anticancer activities against SGC-7901, MGC-803, SMMC-7721, U-87 cell lines in vitro by the MTT assay, and ADM was used as the positive control. From Table 1, when the phenolic hydroxyls of naphthoquinone moiety were converted to ether, the activity was missing. […] So colony formation assay of this compound (Figure 4) was used to investigate the effect of it on cell proliferation in SGC-7901 cells. The experiment examined the ability for producing colonies after the cells were treated with the cell death agents[35]^,[36].

[2] = tested on: SGC-7901 cells; assay: Acridine orange (AO) staining of acidic vesicles; assay type: cell-based, human; details: SGC-7901, 1, 2, and 4 μM, 48 h
Procedure: PH-sensitive Acridine orange (AO) was used to label acidic vesicles. Human gastric cancer cells were seeded in laser confocal dishes at 10,000/ml. After indicated treatment of compound 12 (1 μM, 2 μM, 4 μM) for 48 h, cells were stained with AO (1 μg/ml) for 15 min at the cell culture incubator. After the cells were washed by PBS, pictures were acquired under laser confocal microscope.
Another typical feature of autophagy is the accumulation of the acidic autophagic vacuoles (AVOs)[45]^,[46]. To verify the development of AVOs, Acridine Orange (AO) staining was used to examine whether the acidic vesicular organelles in SGC-7901 cells were increased. AO produces red fluorescence when it accumulates in acidic regions such as autophagy lysosomes and lysosomes and produces bright green fluorescence in the cytoplasm and the nucleus. […] GFP-LC3 indicating technique was also used to detect the autophagy at the same time. When autophagy is formed, multiple bright green fluorescent spots will form as the GFP-LC3 fusion protein can translate to autophagosome membrane. From Figure 6(C), compared to the blank control group, GFP-LC3 puncta were increased after cells treated with compound 12 (4 μM) meanwhile decreased after treated with compound 12 (4 μM) and 3-MA (500 μM).

[3] = tested on: SMMC-7721; assay: MTT cell viability assay, SMMC-7721 cells; assay type: cell-based; details: Homo sapiens, 48 h, n = 3
Procedure: MGC-803, SGC-7901, U87 and SMMC-7721 cell lines were cultured in DMEM supplemented with 10% foetal bovine serum, 100 IU/mL penicillin/streptomycin. The cells were incubated in an atmosphere containing 5% CO2 at 37 °C.
as §1

CC(C)=CCC(OC(=O)CCC(=O)Nc1ccc(Oc2ccccc2)cc1)C1=CC(=O)c2c(O)ccc(O)c2C1=O (stereo not drawn) [Compound 12, 1-(5,8-dihydroxy-1,4-dioxo-1,4-dihydronaphthalen-2-yl)-4-methylpent-3-en-1-yl-4-oxo-4-((4-phenoxyphenyl)amino)butanoate]
anticancer activity (in words) [1]: good activity | red fluorescently labelled acidic vesicles (AO staining) [2]: accumulated obviously | IC50 [3]: 20.6 ± 0.4 µM
